Test results from PMC5168863, “Synthesis and functionalization of protease-activated nanoparticles with tissue plasminogen activator peptides as targeting moiety and diagnostic tool for pancreatic cancer” (Journal of Nanobiotechnology, 2016).
pKd: −log10 of the molar value. Residues, ends and D or L forms follow the SMILES beside them. *: point of attachment. 5FAM = O=C1OC2(c3ccc(O)cc3Oc3cc(O)ccc32)c2ccc(C(=O)*)cc21

What was measured:
[1] = biological target: Gal-1 (Homo sapiens, UniProt P09382); test: Microscale thermophoresis (MST) binding of t-PA peptides to galectin-1; conditions: for pKd: MST, human galectin; for Fold diff.: versus rh t-PA protein
Procedure: (§1) To investigate the binding efficiency of the short t-PA-ligands [10 to 29-AA-long peptides fluorescein or rhodamine-labelled] to galectin-1, we applied the microscale thermophoresis (MST) technology which allows quantitative analysis of protein interactions in solutions. By using MST, individual affinity constants between the different t-PA peptides and galectins (Gal-1, -3, -4) previously characterized to be over-expressed in PDAC were determined and compared to the recombinant human t-PA protein (rh t-PA) as presented in Table 2.
(§2) In order to investigate the binding properties of the modified t-PA-peptides [10-29 AA-long fluorescence-labeled peptides] as ligands to galectins, the microscale thermophoresis (MST) (Monolith NT.115 MST instrument, NanoTemper Technologies GmbH, Munich Germany) technology was employed. MST allows a quantitative analysis of protein interactions in solution and is based on the directed motion of molecules in temperature gradients generated locally by an infrared laser, whereas the molecular mobility in the temperature gradient is analyzed via fluorescence. MST is highly sensitive to all types of binding-induced changes of molecular properties like protein size, charge, hydration shell or conformation. The binding modes such as dimerization, cooperativity, and competition are quantifiable and adaptable to diverse requirements of different biomolecules. Therefore, MST turned out as an ideal method for the interaction studies of t-PA and t-PA-derived peptides with galectins.

[2] = biological target: Gal-3 (Homo sapiens, UniProt P17931); test: Microscale thermophoresis (MST) binding of t-PA peptides to galectin-3; conditions: for pKd: MST, human galectin; for Fold diff.: versus rh t-PA protein
Procedure: as §1, §2

[3] = biological target: T1, Gal-4 (Homo sapiens, UniProt P56470); test: Microscale thermophoresis (MST) binding of t-PA peptides to galectin-4; conditions: for pKd: MST, human galectin; for Fold diff.: versus rh t-PA protein
T1 sequence (P56470 1-323): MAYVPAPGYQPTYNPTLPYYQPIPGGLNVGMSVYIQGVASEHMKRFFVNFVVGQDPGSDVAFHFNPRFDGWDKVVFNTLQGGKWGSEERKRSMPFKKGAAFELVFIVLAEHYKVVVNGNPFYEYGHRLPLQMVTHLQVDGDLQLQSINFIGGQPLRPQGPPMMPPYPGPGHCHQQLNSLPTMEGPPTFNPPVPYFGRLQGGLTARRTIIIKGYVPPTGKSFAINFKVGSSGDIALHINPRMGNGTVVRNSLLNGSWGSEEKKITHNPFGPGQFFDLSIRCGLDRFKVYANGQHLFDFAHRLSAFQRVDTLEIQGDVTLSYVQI
Procedure: as §1, §2

[4] = test system: Panc-1; test: Flow cytometry, binding of peptide/NPs to Panc-1 cells; assay type: cell-based, human
Procedure: (§3) With the first flow cytometry experiments we analyzed the nanoparticle-core (Core CAN-maghemite (Ce-Fe2O3) and the t-PA-peptide1-lactose (t-PApep1lac) linked to the core. This was to determine whether the fluorescein-labelled t-PA-peptides, covalently linked to NPs, bind to Panc-1 and Su86.86 cells and if the cells are able to internalize the NPs. In a parallel set of experiments the binding of the t-PA-peptide alone (without linkage to NPs) to the pancreatic cancer cells was assessed. For the experimental set-up a concentration of t-PA peptide of 1.25 µM was applied and the cells were exposed to the NPs with and without peptides for different incubation periods of 2, 6, 12 and 24 h.
(§4) Flow cytometry (fluorescent-activated cell sorting/FACS) analysis was used to determine the binding of fluorescein-labeled t-PA-pep1Lac and t-PApep1-vectorized nanoparticles (CAN-Mag@PNPs-tPApep1Lac and CAN-Mag@PNPs-PEG-REGAcp-PEG/tPA-pep1Lac) on the surfaces of Panc-1 and SU.86.86 cells. Additional FACS analyses were performed to monitor concentration and time-dependent binding efficiency and changes caused by addition of competitors (galactose, lactose) or in the presence of active MMP-9, which cleaves the REGAcp sequence. Deshielding of CAN-Mag@PNPs-PEG-REGAcp-PEG/tPA-pep1Lac was carried out by pre-activated MMP-9 (20 µM proMMP-9 and 200 nM of catalytic domain cdMMP-3 in 100 mM Tris, 100 mM NaCl, 10 mM CaCl2, pH 7.4 for 2 h at 37 °C). The active MMP-9 (50 µl, 10 µM) was incubated in the presence of 450 µl NPs and subsequently added to cells. Nanoparticle-exposed cell monolayers (of 2 × 10^5 cells/2 ml medium in 6 well plates), with or without treatment, were harvested 2, 12, 24 h post-exposure using 1 mM EDTA–phosphate-buffered saline (PBS) detachment buffer, (Miltenyi GmbH, Bergisch Gladbach, Germany), washed 3 times in PBS, incubated for 45 min on ice and subsequently subjected to analysis in a BD™ LSR II flow cytometer and Software Program: BD FACSDiva 7.0 (Becton–Dickinson,)

[5] = test system: Su.86.86; test: Flow cytometry, binding of peptide/NPs to Su.86.86 cells; assay type: cell-based, human
Procedure: as §3, §4

Sequence of Gal-1 (P09382 whole entry): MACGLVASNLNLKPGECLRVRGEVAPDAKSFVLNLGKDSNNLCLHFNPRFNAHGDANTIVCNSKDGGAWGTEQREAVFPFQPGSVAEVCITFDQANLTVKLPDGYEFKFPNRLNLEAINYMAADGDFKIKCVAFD
Sequence of Gal-3 (P17931 whole entry): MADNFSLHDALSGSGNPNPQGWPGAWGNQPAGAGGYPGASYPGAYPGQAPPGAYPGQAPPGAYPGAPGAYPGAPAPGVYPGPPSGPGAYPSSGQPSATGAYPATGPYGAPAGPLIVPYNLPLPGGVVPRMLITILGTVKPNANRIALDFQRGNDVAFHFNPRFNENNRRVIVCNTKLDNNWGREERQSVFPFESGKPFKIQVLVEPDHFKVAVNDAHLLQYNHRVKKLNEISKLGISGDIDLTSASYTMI

pKd ([1]; N-Fluo. labelled ligand)	Fold diff. ([1]; N-Fluo. labelled ligand)	pKd ([2]; N-Fluo. labelled ligand)	Fold diff. ([2]; N-Fluo. labelled ligand)	pKd ([3]; N-Fluo. labelled ligand)	Fold diff. ([3]; N-Fluo. labelled ligand)	Molecule	pKd ([1]; C-Fluo. labelled ligand)	Fold diff. ([1]; C-Fluo. labelled ligand)	pKd ([2]; C-Fluo. labelled ligand)	Fold diff. ([2]; C-Fluo. labelled ligand)	pKd ([3]; C-Fluo. labelled ligand)	Fold diff. ([3]; C-Fluo. labelled ligand)	Percentage of cells labeled with nanoparticles ([4]; Panc-1, 2 h incubation) [%]	Percentage of cells labeled with nanoparticles ([4]; Panc-1, 12 h incubation) [%]	Percentage of cells labeled with nanoparticles ([4]; Panc-1, 24 h incubation) [%]	Percentage of cells labeled with nanoparticles ([5]; Su.86.86, 2 h incubation) [%]	Percentage of cells labeled with nanoparticles ([5]; Su.86.86, 12 h incubation) [%]	Percentage of cells labeled with nanoparticles ([5]; Su.86.86, 24 h incubation) [%]
3.85	−28.7	3.57	−35.4	4.47	1.5	CC(C)C[C@H](NC(=O)[C@H](C)NC(=O)[C@H](CO)NC(=O)[C@H](CO)NC(=O)[C@H](CC(N)=O)NC(=O)[C@H](Cc1c[nH]c2ccccc12)NC(=O)[C@H](CC(N)=O)NC(=O)[C@@H](NC(=O)[C@H](CS)NC(=O)[C@H](CCC(=O)O)NC(=O)[C@H](C)NC(=O)CNC(=O)[C@H](CO)NC(=O)[C@H](CCC(=O)O)NC(=O)[C@H](C)NC(=O)[C@@H](NC(=O)[C@H](CO)NC(=O)[C@H](Cc1c[nH]c2ccccc12)NC(=O)[C@@H](NC(=O)CNC(=O)c1ccc2c(c1)C(=O)OC21c2ccc(O)cc2Oc2cc(O)ccc21)[C@@H](C)O)[C@@H](C)O)[C@@H](C)O)C(=O)N[C@@H](C)C(=O)N[C@@H](CCC(N)=O)C(=O)N[C@@H](CCCCN)C(=O)N1CCC[C@H]1C(=O)N[C@@H](Cc1ccc(O)cc1)C(=O)N[C@@H](CO)C(=O)NCC(=O)N[C@@H](CCCNC(=N)N)C(=O)O [t-PA-pep-1] (5FAM-GTWSTAESGAECTNWNSSALAQKPYSGR-OH)	–	–	–	–	–	–	–	–	–	–	–	–
5.31	1	5.11	1	4.29	1	rh t-PA protein: recombinant human t-PA protein [reference compound]	–	–	–	–	–	–	–	–	–	–	–	–

Molecule	pKd ([1]; N-Fluo. labelled ligand)	Fold diff. ([1]; N-Fluo. labelled ligand)	pKd ([2]; N-Fluo. labelled ligand)	Fold diff. ([2]; N-Fluo. labelled ligand)	pKd ([3]; N-Fluo. labelled ligand)	Fold diff. ([3]; N-Fluo. labelled ligand)	pKd ([1]; C-Fluo. labelled ligand)	Fold diff. ([1]; C-Fluo. labelled ligand)	pKd ([2]; C-Fluo. labelled ligand)	Fold diff. ([2]; C-Fluo. labelled ligand)	pKd ([3]; C-Fluo. labelled ligand)	Fold diff. ([3]; C-Fluo. labelled ligand)	Percentage of cells labeled with nanoparticles ([4]; Panc-1, 2 h incubation) [%]	Percentage of cells labeled with nanoparticles ([4]; Panc-1, 12 h incubation) [%]	Percentage of cells labeled with nanoparticles ([4]; Panc-1, 24 h incubation) [%]	Percentage of cells labeled with nanoparticles ([5]; Su.86.86, 2 h incubation) [%]	Percentage of cells labeled with nanoparticles ([5]; Su.86.86, 12 h incubation) [%]	Percentage of cells labeled with nanoparticles ([5]; Su.86.86, 24 h incubation) [%]
CC(C)C[C@H](NC(=O)[C@H](C)NC(=O)[C@H](CO)NC(=O)[C@H](CO)NC(=O)[C@H](CO[C@@H]1O[C@H](CO)[C@@H](O[C@@H]2O[C@H](CO)[C@H](O)[C@H](O)[C@H]2O)[C@H](O)[C@H]1O)NC(=O)[C@H](Cc1c[nH]c2ccccc12)NC(=O)[C@H](CC(N)=O)NC(=O)[C@@H](NC(=O)[C@H](CS)NC(=O)[C@H](CCC(=O)O)NC(=O)[C@H](C)NC(=O)CNC(=O)[C@H](CO)NC(=O)[C@H](CCC(=O)O)NC(=O)[C@H](C)NC(=O)[C@@H](NC(=O)[C@H](CO)NC(=O)[C@H](Cc1c[nH]c2ccccc12)NC(=O)[C@@H](NC(=O)CN)[C@@H](C)O)[C@@H](C)O)[C@@H](C)O)C(=O)N[C@@H](C)C(=O)N[C@@H](CCC(N)=O)C(=O)N[C@@H](CCCCN)C(=O)N1CCC[C@H]1C(=O)N[C@@H](Cc1ccc(O)cc1)C(=O)N[C@@H](CO)C(=O)NCC(=O)N[C@@H](CCCNC(=N)N)C(=O)N[C@@H](CCCCNC(=O)c1ccc2c(c1)C(=O)OC21c2ccc(O)cc2Oc2cc(O)ccc21)C(=O)O [t-PA-pep-1lac]	6.54	17	–	–	–	–	6.70	25	6.14	10.4	4.90	4.03	2.6	87.6	86.3	25.7	45.8	36.6
